Source: publication PMC7239831, “Suitability of Artificial Membranes in Lipolysis-Permeation Assays of Oral Lipid-Based Formulations” (Pharmaceutical Research, 2020)

What was measured:
[1] = In vitro lipolysis-permeation assay of fenofibrate-loaded LBFs in the ENA device (porcine pancreatin); format: in vitro ADME
Method: Three formulations representing LFCS types IIIA-MC, IIIA-LC (long chain fatty acid component), and type IV (Table I) were assayed for their performance using artificial membranes in the ENA device. No more than one week before the assay, excipients were heated to 37°C before being weighed into a glass vial. The vial was capped with argon, vortexed, and then shaken overnight (450 rpm, 37°C). The formulations were then loaded with fenofibrate (80 mg/g) in the same manner, and shaken until complete dissolution.
The loaded formulations were weighed separately and then dispensed into ENA donor compartments (Fig. 1b) that had been prefilled with digestion medium spiked with LY to 10 μM (0.1% DMSO). Samples were taken from both compartments during dispersion (0–10 min) and digestion (10–100 min). Samples from the donor compartment were immediately filtered through a hydrophilic nylon syringe filter (Whatman PuraDisc 13, pore size 0.1 μm) to separate precipitates and oil droplets from fenofibrate in free solution and in colloidal aggregates, using the same procedures as those described in Juenemann et al. and Stillhart et al. ([28],[29]). The syringe filters were then flushed through with room temperature acetonitrile to recover precipitated fenofibrate. […] Phases were instead separated through centrifugation (37°C, 21,000 g for 15 min) for these samples. Receiver compartment samples were then quantified using UPLC-MS, and donor samples using HPLC-UV.
Fenofibrate was analyzed using a UV-DAD coupled HPLC (1290 Infinity, Agilent Technologies) with a Zorbax Eclipse XDB-C18 column (4.6 × 100 mm, Agilent Technologies) kept at 40°C (injection volume 20 μl). The mobile phase consisted of sodium acetate buffer (25 mM, pH 5.0) in acetonitrile solution (2:8 v/v) with isocratic flow (1 ml/min). UV absorbance was monitored at a wavelength of 287 nm. The retention time was 3.32 min. Sample preparation consisted of 100x dilution in mobile phase and a centrifugation step (21,000 g, 15 min, 25°C) to purify the matrix. […]

[2] = set-up: method as in PMID 23500116, doi:10.1016/j.jddst.2016.06.013, PMID 28826878; details: cited from earlier work
Caco-2 monolayer = assay: Caco-2 based lipolysis-permeation assay in ENA (data re-analyzed from Keemink et al.); details: average over formulations
[3] = Integrity assay with static digest matrix (LY mass transfer); format: in vitro ADME; details: GIT-0 membranes
Method: Six samples of 4 ml were taken during dispersion and digestion phases of single-compartment in vitro lipolysis (Fig. 1a) of a formulation over a period of 40 min. The formulation was of type IIIB-MC (medium chain length triglyceride component, 8–10 carbons) according to the Lipid Formulation Classification System (LFCS) ([27]), see Table I for composition. […] To visualize membrane integrity, Lucifer Yellow (LY) in DMSO solution was added to each sample to a final LY concentration of 10 μM and 0.1% DMSO. LY is highly hydrophilic; its permeation through intact lipid membranes should therefore be negligible. The sample tubes were then vortexed, and shaken at 450 rpm at 37°C until further use.
Digestion samples were dispensed (1.2 ml) into the donor compartments of Transwell inserts treated to form artificial membranes. Negative controls comprised only blank digestion medium or lipolysis buffer (both containing LY, 10 μM) in the donor compartment. Positive controls were untreated inserts composed of naked polycarbonate filters, or GIT-0 solution added to pre-wet filters (disrupts membrane formation). The receiver compartments contained 2 ml of either plain phosphate buffer (PB, 10 mM), Acceptor Sink Buffer (20 mM HEPES, 1% w/v SDS), or PB supplemented with 4% w/w bovine serum albumin (BSA). All receiver buffers were adjusted to pH 7.40.
From examination of mass transfer profiles, membrane damage was evaluated by Area Under the Curve (AUC) values of LY mass transfer over time. The criteria were that an LY AUC > 10 nmol min cm^−2 was considered to indicate major membrane disruption, while an LY AUC < 1 nmol min cm^−2 was considered to indicate an intact membrane.
LY presence was detected using fluorescence (Spark or Safire^2 plate readers, Tecan, Austria) at 428 and 536 nm wavelength for excitation and emission, respectively. Samples were diluted 1:2 in ice-cold acetonitrile and centrifuged (4°C, 2465 g for 20 min) to precipitate protein content.

[4] = Integrity assay under dynamic digestion conditions (LY mass transfer); format: in vitro ADME; details: LiDo on PVDF; up to two hours
Method: HDM, GIT-0 and LiDo membranes were subjected to in situ lipolysis of the IIIB-MC LBF in a 6-well culture plate format. Transwell inserts (diameter of 24 mm) were used for polycarbonate filters, and inserts were made in-house to hold the PVDF filters (diameter of 25 mm). For these lipolysis experiments, a modified digestion medium with greater buffering capacity was used. The digestion medium contained 200 mM Tris-maleate in these experiments to maintain pH within 0.3 units of the initial value of the lipolysis buffer (pH 6.5) over one hour of digestion (Table S2, Supplementary Material), since no autotitration could be used in the setup. LBF was weighed into a glass tube, and 10 ml of this modified digestion medium spiked with 10.3 μl of LY in DMSO solution (10 mM) was added and vortexed. […]
GIT-0 and LiDo membranes were also evaluated in a large-scale (75 mm diameter) in-house developed lipolysis-permeation device named “ENA” ([19]) in order to explore whether these two lipid mixtures with theoretically similar compositions and production methods also yielded similar results. […]
LY presence was detected using fluorescence (Spark or Safire^2 plate readers, Tecan, Austria) at 428 and 536 nm wavelength for excitation and emission, respectively. […]

CC(C)OC(=O)C(C)(C)Oc1ccc(C(=O)c2ccc(Cl)cc2)cc1 [fenofibrate]
Expected flux in vivo relative to flux over LiDo/Caco-2 ([1]; based on expected permeability in human small intestine): 10 fold
Flux of fenofibrate over LiDo relative to flux of cinnarizine over Permeapad ([1]; under comparable conditions, average, Permeapad data ref 40): 334 fold
Permeability (in words) [2]: highly permeable
Caco-2 permeability relative to LiDo after adjusting for filter porosity (ε) (Caco-2 monolayer): 1.8 fold
Ratio between Caco-2 and LiDo permeability (Caco-2 monolayer; uncorrected Papp): 0.42

CC(C)(Oc1ccc(C(=O)c2ccc(Cl)cc2)cc1)C(=O)O [fenofibric acid]
Detection of fenofibric acid (control of API degradation during lipolysis and sample storage) ([1]; UPLC-MS, all samples): no fenofibric acid could be detected

Lucifer Yellow CH dilithium salt [LY]
LY mass transfer AUC15-60 min ([3]; Fig. 2c, Acceptor Sink Buffer in receiver per legend, 30 min digestion sample): < LOQ
LY mass transfer AUC15-60 min ([3]; Fig. 2c, Acceptor Sink Buffer in receiver per legend, dispersion sample of IIIB-MC LBF): < LOQ
LY mass transfer AUC15-60 min ([3]; Fig. 2d, PB with 4% BSA in receiver per legend, 30 min digestion sample): < LOQ
LY mass transfer AUC15-60 min ([3]; Fig. 2d, PB with 4% BSA in receiver per legend, dispersion sample of IIIB-MC LBF): < LOQ
LY permeation through membrane [4]: did not allow detectable levels
